Like-named read-outs stand apart in the source and are kept apart here. Bridge positions count the residues as written; N and C are the ends. Square brackets hold non-standard residues; d marks the D form. Peptide text beside a SMILES is read from it. * marks the point of attachment. Lys(N3) = [N-]=[N+]=NCCCC[C@H](N)C(=O)O; Azidoacetyl = [N-]=[N+]=NCC(=O)*; NMeF = CN[C@@H](Cc1ccccc1)C(=O)O; NMeL = CN[C@@H](CC(C)C)C(=O)O
How the values were obtained:
[1] = system: Mycobacterium smegmatis strain mc2155 (Msm)
[2] = Serum stability assay; assay type: in vitro ADME; conditions: mouse serum, 37 °C, 1.0 mM peptide; time points 0, 15, 30, 60 min; RP-HPLC (C8), AUC normalized to internal standard Fmoc-L-phenylalanine
Protocol: was added to the system. The systems were prepared using the CHARMM scripts provided by CHARMM-GUI.4 The CHARMM36m force field5 was employed for the MD simulations. After energy minimization and 500 ps equilibration, a 100 ns production run was performed. All production MD simulations were performed for the NPT ensemble at 303.15 K and 1 atm using NAMD3. Long-range electrostatic interactions were treated using the particle mesh Ewald (PME) method 6 while Lennard-Jones (LJ) interactions were managed with a force-based switching function applied between 10 Å and 12 Å. […] Hydrogen bonds between different residues within the same peptide were analyzed using the last 50 ns of the simulation.
Serum stability assay. Time course degradation in mouse serum was evaluated for peptides Lin0, Cyc0, Nmet0 and Nmet9. […]
The samples were then centrifuged at 21,000×g for 5 min. […] 110 μL of the filtrate was then analyzed using Phenomenex Luna 5 µm C8(2) on RP-HPLC; gradient elution in H2O/CH3CN with 0.1% TFA at 1 mL/min. […]
Minimum inhibitory concentration (MIC) assay. […] MIC values were determined both visually and readings of OD (wells OD < 0.1) from a Biotek Synergy H1 microplate reader at 600 nm.

Structure (SMILES): CC(C)C[C@@H]1NC(=O)[C@H](CCCCN=[N+]=[N-])NC(=O)CSC[C@@H](C(=O)N[C@@H](Cc2ccccc2)C(N)=O)NC(=O)[C@H](CCCCN)NC(=O)[C@H](CO)NC1=O [Cyc0] ({CH2CO}-[Lys(N3)]LSKCF-NH2; thioether N-5)
- apparent accumulation across the mycomembrane in Msm ([1]; PAC-MAN, 50 μM compound, 2 h, 37 °C, chase 50 μM Fl-az 1 h, flow cytometry, mean ± SD n = 3): better accumulation than any other member of this macrocyclic sub-library

Structure (SMILES): CC(=O)N[C@@H](CCCCN=[N+]=[N-])C(=O)N[C@@H](CC(C)C)C(=O)N[C@@H](CO)C(=O)N[C@@H](CCCCN)C(=O)N[C@@H](CO)C(=O)N[C@@H](Cc1ccccc1)C(N)=O [Lin0] (Ac-[Lys(N3)]LSKSF-NH2)
- time to full degradation in serum [2]: ≤ 1 h

Structure (SMILES): CC(C)C[C@H](NC(=O)[C@H](CCCCN)NC(=O)CN=[N+]=[N-])C(=O)N[C@@H](CCCCN)C(=O)N(C)[C@@H](CC(C)C)C(=O)N(C)[C@@H](Cc1ccccc1)C(N)=O [Nmet2] (Azidoacetyl-KLK[NMeL][NMeF]-NH2)
- apparent accumulation across the mycomembrane in Msm [1]: increase was even more pronounced

From article doi:10.1101/2025.01.17.633618, “Systematic Determination of the Impact of Structural Edits on Peptide Accumulation into Mycobacteria” (bioRxiv, 2025)
